How the values were obtained:
[1] = system: cellular content of cholesterol; assay type: cell-based
EBOVpp = assay type: cell-based, Ebola virus
EBOV-GP/HIV-luc = assay type: cell-based, Ebola virus

For `CCN(CC)CCO[C@H]1CC[C@@]2(C)C(=CC[C@@H]3[C@@H]2CC[C@]2(C)C(=O)CC[C@@H]32)C1` [U18666A], the “cellular content of cholesterol” value [1] was “cholesterol accumulation”.
For `O=C1Nc2ccc(Cl)cc2[C@@](C#CC2CC2)(C(F)(F)F)O1` [efavirenz], the “inhibitory effect by time of drug addition” value (EBOVpp) was “maintained its inhibitory effect up to 8 hpi”.
heparin was tested, and the “effect on uptake of viral genomic RNA (virus binding to the cell)” value (EBOV-GP/HIV-luc) was “marked inhibition”.

Reference: PMC9764067 (Acta Pharmaceutica Sinica. B, 2022)
